Assay results from US20250163104A1, “MACROCYCLIC IMMUNOMODULATORS” (priority 2021, published 2025).
Where a SMILES comes first, the peptide text is derived from it. Bridges are numbered along the chain shown (N, C = ends). [ ]: non-standard residue; d: D form. The star is where a group is joined. Phe(4-COOH) = N[C@@H](Cc1ccc(C(=O)O)cc1)C(=O)O; Asp(3,3-Me2) = CC(C)(C(=O)O)[C@H](N)C(=O)O; Bip = N[C@@H](Cc1ccc(-c2ccccc2)cc1)C(=O)O; Phe(3-Me) = Cc1cccc(C[C@H](N)C(=O)O)c1; Val(3-OH) = CC(C)(O)[C@H](N)C(=O)O; hPhe = N[C@@H](CCc1ccccc1)C(=O)O; 4Pal = N[C@@H](Cc1ccncc1)C(=O)O; Cha = N[C@@H](CC1CCCCC1)C(=O)O; hSer = N[C@@H](CCO)C(=O)O; Carboxymethyl = O=C(O)C*; Orn = NCCC[C@H](N)C(=O)O; Dab = NCC[C@H](N)C(=O)O; Nva = CCC[C@H](N)C(=O)O; Ac3c = NC1(C(=O)O)CC1; NHCH2CH2OMe = COCCN*

Molecular target: T1, human PD-1 / PD-L1-Ig binding on Jurkat cell line over-expressing human PD-1 (Jurkat-PD-1) (Homo sapiens, UniProt Q15116)
T1 construct: expressed in transfected cells; host or cells: Jurkat
T1 sequence (Q15116 25-288): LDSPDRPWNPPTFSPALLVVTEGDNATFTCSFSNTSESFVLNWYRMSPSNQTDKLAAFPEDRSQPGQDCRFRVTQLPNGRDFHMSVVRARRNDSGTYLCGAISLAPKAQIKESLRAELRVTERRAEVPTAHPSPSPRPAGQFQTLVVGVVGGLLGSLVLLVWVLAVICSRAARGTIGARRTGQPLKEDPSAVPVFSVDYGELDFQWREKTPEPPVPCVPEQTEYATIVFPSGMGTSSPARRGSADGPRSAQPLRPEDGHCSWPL
Assay: Jurkat-PD-1 Cell Binding High-Content Screening Assay (CBA)
Assay type: cell-based
Details: Jurkat-PD-1 cells, PE-labeled PD-L1-Ig 20 nM final; read-out: Jurkat HPD1_PDL1 IC50
In short: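 Binding of fluorescent PD-L1-Ig (phycoerythrin linked via the Ig tag, 20 nM final) to PD-1-overexpressing Jurkat cells was imaged after a 2 h, 37° C compound pretreatment and 1 hour ligand incubation.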

Structure (SMILES)	IC50
Cc1cccc(C[C@@H]2NC(=O)[C@H](CC(=O)O)NC(=O)[C@H](Cc3ccc(OCC(=O)O)cc3)NC(=O)[C@H](CCN)NC(=O)CSC[C@@H](C(=O)N[C@H](C(N)=O)C(C)(C)C(=O)O)NC(=O)[C@H](CO)NC(=O)[C@H](C(C)(C)O)NC(=O)[C@H](CC3CCCCC3)NC(=O)[C@H](CCN)NC(=O)[C@@H](CC(C)C)NC(=O)[C@H](CCCN)NC(=O)[C@H](Cc3ccc(OCC(=O)O)cc3)NC(=O)[C@H](Cc3ccc(-c4ccccc4)cc3)NC(=O)[C@H](Cc3ccc(OCC(=O)O)cc3)NC2=O)c1 [Compound 2071] ({CH2CO}-[Dab]Y(Carboxymethyl)D[Phe(3-Me)]Y(Carboxymethyl)[Bip]Y(Carboxymethyl)[Orn][dL][Dab][Cha][Val(3-OH)]SC[Asp(3,3-Me2)]-NH2; thioether N-14)	148 nM
Cc1cccc(C[C@@H]2NC(=O)[C@H](CC(=O)O)NC(=O)[C@H](Cc3ccc(C(=O)O)cc3)NC(=O)[C@H](Cc3ccncc3)NC(=O)CSC[C@@H](C(=O)N[C@@H](CCN)C(N)=O)NC(=O)[C@H](CO)NC(=O)[C@H](C(C)(C)O)NC(=O)[C@H](CC3CCCCC3)NC(=O)[C@H](CCN)NC(=O)[C@@H](CC(C)C)NC(=O)[C@H](C(C)(C)C(=O)O)NC(=O)[C@H](Cc3ccc(OCC(=O)O)cc3)NC(=O)[C@H](Cc3ccc(-c4ccccc4)cc3)NC(=O)[C@H](Cc3ccc(OCC(=O)O)cc3)NC2=O)c1 [Compound 2072] ({CH2CO}-[4Pal][Phe(4-COOH)]D[Phe(3-Me)]Y(Carboxymethyl)[Bip]Y(Carboxymethyl)[Asp(3,3-Me2)][dL][Dab][Cha][Val(3-OH)]SC[Dab]-NH2; thioether N-14)	19.5 nM
Cc1cccc(C[C@@H]2NC(=O)[C@H](CC(=O)O)NC(=O)[C@H](Cc3ccc(OCC(=O)O)cc3)NC(=O)[C@H](CCN)NC(=O)CSC[C@@H](C(=O)N[C@@H](CCN)C(N)=O)NC(=O)[C@H](CO)NC(=O)[C@H](C(C)(C)O)NC(=O)[C@H](CC3CCCCC3)NC(=O)[C@H](CCN)NC(=O)[C@@H](CC(C)C)NC(=O)[C@H](C(C)(C)C(=O)O)NC(=O)[C@H](Cc3ccc(OCC(=O)O)cc3)NC(=O)[C@H](Cc3ccc(-c4ccccc4)cc3)NC(=O)[C@H](Cc3ccc(OCC(=O)O)cc3)NC2=O)c1 [Compound 2073] ({CH2CO}-[Dab]Y(Carboxymethyl)D[Phe(3-Me)]Y(Carboxymethyl)[Bip]Y(Carboxymethyl)[Asp(3,3-Me2)][dL][Dab][Cha][Val(3-OH)]SC[Dab]-NH2; thioether N-14)	22.2 nM
CCC[C@@H]1NC(=O)CSC[C@@H](C(=O)N[C@@H](CCN)C(=O)NCCOC)NC(=O)[C@H](CO)NC(=O)[C@H](C(C)(C)O)NC(=O)[C@H](CC2CCCCC2)NC(=O)[C@H](CCN)NC(=O)[C@@H](CC(C)C)NC(=O)[C@H](CCCN)NC(=O)[C@H](Cc2ccc(OCC(=O)O)cc2)NC(=O)[C@H](Cc2ccc(-c3ccccc3)cc2)NC(=O)[C@H](Cc2ccc(OCC(=O)O)cc2)NC(=O)[C@H](Cc2cccc(C)c2)NC(=O)[C@H](CC(=O)O)NC(=O)[C@H](Cc2ccc(OCC(=O)O)cc2)NC1=O [Compound 2074] ({CH2CO}-[Nva]Y(Carboxymethyl)D[Phe(3-Me)]Y(Carboxymethyl)[Bip]Y(Carboxymethyl)[Orn][dL][Dab][Cha][Val(3-OH)]SC[Dab]-NHCH2CH2OMe; thioether N-14)	4.4 nM
COCCNC(=O)[C@H](CCN)NC(=O)[C@@H]1CSCC(=O)N[C@@H](CCOC)C(=O)N[C@@H](Cc2ccc(OCC(=O)O)cc2)C(=O)N[C@@H](CC(=O)O)C(=O)N[C@@H](Cc2cccc(C)c2)C(=O)N[C@@H](Cc2ccc(OCC(=O)O)cc2)C(=O)N[C@@H](Cc2ccc(-c3ccccc3)cc2)C(=O)N[C@@H](Cc2ccc(OCC(=O)O)cc2)C(=O)N[C@@H](CCCN)C(=O)N[C@H](CC(C)C)C(=O)N[C@@H](CCN)C(=O)N[C@@H](CC2CCCCC2)C(=O)N[C@@H](C(C)(C)O)C(=O)N[C@@H](CO)C(=O)N1 [Compound 2075] ({CH2CO}-[hSer](Me)Y(Carboxymethyl)D[Phe(3-Me)]Y(Carboxymethyl)[Bip]Y(Carboxymethyl)[Orn][dL][Dab][Cha][Val(3-OH)]SC[Dab]-NHCH2CH2OMe; thioether N-14)	4.1 nM
COCCNC(=O)[C@H](CCN)NC(=O)[C@@H]1CSCC(=O)N[C@@H](Cc2ccncc2)C(=O)N[C@@H](Cc2ccc(C(=O)O)cc2)C(=O)N[C@@H](CC(=O)O)C(=O)N[C@@H](Cc2cccc(C)c2)C(=O)N[C@@H](Cc2ccc(OCC(=O)O)cc2)C(=O)N[C@@H](Cc2ccc(-c3ccccc3)cc2)C(=O)N[C@@H](Cc2ccc(OCC(=O)O)cc2)C(=O)N[C@@H](CCCN)C(=O)N[C@H](CC(C)C)C(=O)N[C@@H](CCN)C(=O)N[C@@H](CC2CCCCC2)C(=O)N[C@@H](C(C)(C)O)C(=O)N[C@@H](CO)C(=O)N1 [Compound 2076] ({CH2CO}-[4Pal][Phe(4-COOH)]D[Phe(3-Me)]Y(Carboxymethyl)[Bip]Y(Carboxymethyl)[Orn][dL][Dab][Cha][Val(3-OH)]SC[Dab]-NHCH2CH2OMe; thioether N-14)	240 nM
COCCNC(=O)[C@H](CCN)NC(=O)[C@@H]1CSCC(=O)N[C@@H]([C@@H](C)O)C(=O)N[C@@H](Cc2ccc(C(=O)O)cc2)C(=O)N[C@@H](CC(=O)O)C(=O)N[C@@H](Cc2cccc(C)c2)C(=O)N[C@@H](Cc2ccc(OCC(=O)O)cc2)C(=O)N[C@@H](Cc2ccc(-c3ccccc3)cc2)C(=O)N[C@@H](Cc2ccc(OCC(=O)O)cc2)C(=O)N[C@@H](CCCN)C(=O)N[C@H](CC(C)C)C(=O)N[C@@H](CCN)C(=O)N[C@@H](CC2CCCCC2)C(=O)N[C@@H](C(C)(C)O)C(=O)N[C@@H](CO)C(=O)N1 [Compound 2077] ({CH2CO}-T[Phe(4-COOH)]D[Phe(3-Me)]Y(Carboxymethyl)[Bip]Y(Carboxymethyl)[Orn][dL][Dab][Cha][Val(3-OH)]SC[Dab]-NHCH2CH2OMe; thioether N-14)	7.3 nM
COC[C@@H]1NC(=O)CSC[C@@H](C(=O)N[C@@H](CCN)C(N)=O)NC(=O)[C@H](CO)NC(=O)[C@H](C(C)(C)O)NC(=O)[C@H](CC2CCCCC2)NC(=O)[C@H](CCN)NC(=O)[C@@H](CC(C)C)NC(=O)[C@H](CCCN)NC(=O)[C@H](Cc2ccc(OCC(=O)O)cc2)NC(=O)[C@H](Cc2ccc(-c3ccccc3)cc2)NC(=O)[C@H](Cc2ccc(OCC(=O)O)cc2)NC(=O)[C@H](Cc2cccc(C)c2)NC(=O)[C@H](CC(=O)O)NC(=O)[C@H](Cc2ccc(C(=O)O)cc2)NC1=O [Compound 2078] ({CH2CO}-S(Me)[Phe(4-COOH)]D[Phe(3-Me)]Y(Carboxymethyl)[Bip]Y(Carboxymethyl)[Orn][dL][Dab][Cha][Val(3-OH)]SC[Dab]-NH2; thioether N-14)	4.9 nM
COCC[C@@H]1NC(=O)CSC[C@@H](C(=O)N[C@@H](CCN)C(N)=O)NC(=O)[C@H](CO)NC(=O)[C@H](C(C)(C)O)NC(=O)[C@H](CC2CCCCC2)NC(=O)[C@H](CCN)NC(=O)[C@@H](CC(C)C)NC(=O)[C@H](CCCN)NC(=O)[C@H](Cc2ccc(OCC(=O)O)cc2)NC(=O)[C@H](Cc2ccc(-c3ccccc3)cc2)NC(=O)[C@H](Cc2ccc(OCC(=O)O)cc2)NC(=O)[C@H](Cc2cccc(C)c2)NC(=O)[C@H](CC(=O)O)NC(=O)[C@H](Cc2ccc(C(=O)O)cc2)NC1=O [Compound 2079] ({CH2CO}-[hSer](Me)[Phe(4-COOH)]D[Phe(3-Me)]Y(Carboxymethyl)[Bip]Y(Carboxymethyl)[Orn][dL][Dab][Cha][Val(3-OH)]SC[Dab]-NH2; thioether N-14)	6.3 nM
CCC[C@@H]1NC(=O)CSC[C@@H](C(=O)N[C@@H](CCN)C(N)=O)NC(=O)[C@H](CO)NC(=O)[C@H](C(C)(C)O)NC(=O)[C@H](CC2CCCCC2)NC(=O)[C@H](CCN)NC(=O)[C@@H](CC(C)C)NC(=O)[C@H](CCCN)NC(=O)[C@H](Cc2ccc(OCC(=O)O)cc2)NC(=O)[C@H](Cc2ccc(-c3ccccc3)cc2)NC(=O)[C@H](Cc2ccc(OCC(=O)O)cc2)NC(=O)[C@H](Cc2cccc(C)c2)NC(=O)[C@H](CC(=O)O)NC(=O)[C@H](Cc2ccc(C(=O)O)cc2)NC1=O [Compound 2080] ({CH2CO}-[Nva][Phe(4-COOH)]D[Phe(3-Me)]Y(Carboxymethyl)[Bip]Y(Carboxymethyl)[Orn][dL][Dab][Cha][Val(3-OH)]SC[Dab]-NH2; thioether N-14)	4.2 nM
Cc1cccc(C[C@@H]2NC(=O)[C@H](CC(=O)O)NC(=O)[C@H](Cc3ccc(C(=O)O)cc3)NC(=O)[C@H](CCc3ccccc3)NC(=O)CSC[C@@H](C(=O)N[C@@H](CCN)C(N)=O)NC(=O)[C@H](CO)NC(=O)[C@H](C(C)(C)O)NC(=O)[C@H](CC3CCCCC3)NC(=O)[C@H](CCN)NC(=O)[C@@H](CC(C)C)NC(=O)[C@H](CCCN)NC(=O)[C@H](Cc3ccc(OCC(=O)O)cc3)NC(=O)[C@H](Cc3ccc(-c4ccccc4)cc3)NC(=O)[C@H](Cc3ccc(OCC(=O)O)cc3)NC2=O)c1 [Compound 2081] ({CH2CO}-[hPhe][Phe(4-COOH)]D[Phe(3-Me)]Y(Carboxymethyl)[Bip]Y(Carboxymethyl)[Orn][dL][Dab][Cha][Val(3-OH)]SC[Dab]-NH2; thioether N-14)	111 nM
Cc1cccc(C[C@@H]2NC(=O)[C@H](CC(=O)O)NC(=O)[C@H](Cc3ccc(OCC(=O)O)cc3)NC(=O)[C@H](Cc3ccncc3)NC(=O)CSC[C@@H](C(=O)N[C@@H](CCN)C(N)=O)NC(=O)[C@H](CO)NC(=O)[C@H](C(C)(C)O)NC(=O)[C@H](CC3CCCCC3)NC(=O)[C@H](CCN)NC(=O)[C@@H](CC(C)C)NC(=O)C3(CC3)NC(=O)[C@H](Cc3ccc(OCC(=O)O)cc3)NC(=O)[C@H](Cc3ccc(-c4ccccc4)cc3)NC(=O)[C@H](Cc3ccc(OCC(=O)O)cc3)NC2=O)c1 [Compound 2082] ({CH2CO}-[4Pal]Y(Carboxymethyl)D[Phe(3-Me)]Y(Carboxymethyl)[Bip]Y(Carboxymethyl)[Ac3c][dL][Dab][Cha][Val(3-OH)]SC[Dab]-NH2; thioether N-14)	111 nM
